The subject of assay [1] is Peripheral blood T cells. Briefly: S phase entry of mitogen-stimulated peripheral blood T cells (flow cytometry). It is filed as cell-based, human. To be noted: PHA; for cell death: evaluated at 40 h, data not shown. How it is done:
C and D. LAC blocks the S phase entry of the mitogen-stimulated peripheral blood T cells Peripheral blood T cells were stimulated with PHA (2 μ/ml) in the absence or presence of LAC (10 μM, added at 0 h, 16 h, 24 h, or 40 h, as indicated in the bottom of the panels). For the flow cytometry analysis of the cell cycle progress, the cells were harvested at 0 h, 1 6 h, 40 h and 64 h as indicated on the top of the panels (FIG. 6C). For ^3H-thymidine uptake, the triplicated cell samples were pulsed at 48 h and harvested at 64 h (FIG. 6D).
T cells from PBMC were at Go when isolated. After 16 h stimulation with PHA, they remained before the S phase (FIG. 6C). At 40 h, about 20% of the cells were in the S and G2/M phases. The peak of ^3H-thymidine uptake according to a 16 h pulse was between 48 h and 64 h (data not shown), although at 64 h, the cells in the S and G2/M phases were still about 20% (FIG. 6C). The lack of an increase in percentage of cells in the S and G2/M phases at 64 h compared with that at 40 h was likely due to the exit of the cells from the S and G2/M phase. It is to be noted that the cycling T cells in this system never reaches 100%, because about 15% of the cells were non T cells, and an additional 20% were non responsive T cells. Taken the cell proliferation and cell cycle analysis together, the G1/S boundary of the cycling T cells should be between about 35 h and 48 h after the PHA stimulation. The boundary was broad because the synchronization was not ideal.
In this model, the role of the proteasome in the S phase entry was examined. […] We have noticed that when the cell viability was evaluated at 40 h, there was an increase of cell death comparing the 16 h addition of LAC with the 0 h addition (about 25% vs about 17%, data not shown). The increased cell death was also reflected in the cells with <2N DNA in the 40 h histogram. However, such a viability was still reasonable and would not invalidate our conclusion. […] The discrepancy could be explained by the fact that the 20% cells were already in the S and G2/M phases at 40 h when LAC was added. LAC prevented additional cells from entering into the S phase, therefore the lack ^3H-thymidine uptake.
Flow cytometry was employed for cell cycle analysis for T cells and Jurkat cells as described before (Shan et al., 1994, supra) using propidium iodide staining.
In general terms: A flow cytometer gives signals particle by particle.

Assay [2] deals with p27^Kip1. Put plainly: Immunoblotting of p27Kip1 level in T cells. It is filed as cell-based, human. Conditions: PHA, LAC 10 μM added once at 0 h. On the procedure: Tonsillar T cells were stimulated with PHA (2 μg/ml) for 16 h, 40 or 64 h in the absence or presence of LAC (10 μM). For the 16 h and 40 h culture, LAC was added once at 0 h. For the 64 h culture, LAC was added once at 40 h. The cell lysates were resolved in 10% SDS-PAGE, and blotted onto PVDF membranes. The membranes were hybridized with rabbit anti-p27^Kip1 antisera (FIG. 9A) or with anti-p21^Cip1 antisera (FIG. 9B) followed by ^125-protein A. The experiments were performed three times, and similar results were obtained. Representative data is shown.
In addition to the cyclin levels, the CDK activities are also controlled by several low molecular weight inhibitors. We have examined in this study the effect of the proteasome on the CDK inhibitors p27^Kip1 (Hall et al., 1995, supra) and p21^Cip1 (el-Deiry et al., 1993, Cell 75:817). […] This is in agreement with previous reports (Hengst et al., 1996, Science 271:1861; Nourse et al., 1994, Nature 372:570). […] The blockage was less obvious when assayed at 40 h, probably because the gradual loss of LAC activity during the 40 h culture. […]
Immunoblotting was employed to evaluate the levels of Cyclin E, cyclin A, p21^Cip1 and p27^Kip1. […] The cleared lysates were quantitated for protein concentrations. […] The signals on the membrane were detected by [^125I]-protein A followed by autoradiography.
Background: A western blot detects proteins with antibodies after separation by electrophoresis.

The subject of assay [3] is nitric oxide synthase. Put plainly: Northern blot of nitric oxide synthase expression in macrophages. It is filed as cell-based, mouse. To be noted: 2 μg/ml LPS. How it is done:
Nitric oxide synthase expression was measured with Northern blot analysis.
BALB/c mice were injected i.p. with 3 ml of 3% thioglycollate broth. Three days later, peritoneal exudate macrophages of the mice were harvested and washed at 170 g for 10 min at 4° C. […]
The expression of inducible nitric oxide synthase at the mRNA level was analyzed by Northern blot as described in our previous publication (Shan et al., 1994, supra). After an overnight culture, the mouse macrophages were harvested and their total cellular RNA was extracted with the guanidine/CsCl method. The RNA (10 μg/lane) was resolved in 1% agarose-formaldehyde gels and blotted onto nylon membranes. A 562-bp fragment corresponding to the mouse iNOS cDNA (Xie et al., 1992, Science 256:225) was obtained by reverse transcription/PCR using the mouse macrophages total RNA as templates. The fragment was labeled with ^32p with random primers and used as a probe for the Northern blot.

In assay [4] the test system is Bik. Briefly: Immunoblotting of Bik in mitochondrial fraction of Jurkat cells. The class given is cell-based. To be noted: lactacystin 6 μM. On the procedure:
Jurkat cells were treated with lactacystin (6 μM) for 5 h (lanes 2 and 4 of panel […]) or 7 h (lane 3 of panel B), lane 1 in panels A and B is untreated control samples. The cells were separated into mitochondrial (mito in panel A and mitochondria in panel B) and cytosolic (cytosol in panel A) fractions, and the lysate of these two fractions analyzed by immunoblotting using goat anti-Bik, and rabbit anti-Bax, Bak and Bad Ab (all from Santa Cruz Biotech, Santa Cruz, Calif.) followed by enhanced chemiluminescence (ECL, kit from Amersham). […] Jurkat cells, wild type Namalwa cells and Bcl-xL transfected Namalwa cells were treated with medium (lanes 1), staurosporine (0.3 μM, lanes 2) and lactacystin (6 μM, lanes 3) for 6 H. The proteins from the mitochondrial fraction of these cells were analyzed by immunoblotting and the amount of Bik, Bcl-xL, Bax, and Bak evaluated. The same membranes were used sequentially and probed with different antibodies against these factors. A nonspecific band recognized by a monoclonal antibody against cytochrome […] (COX) was used as control for even sample loading in the lanes.

For `CC(=O)N[C@@H](CSC(=O)[C@]1([C@@H](O)C(C)C)NC(=O)[C@H](C)[C@@H]1O)C(=O)O` [LAC, lactacystin], the S phase entry result in assay [1] (LAC 10 μM added once at 16 h, examined at 40 h) is recorded as “totally block the S phase entry”. Besides, the cell death entry is “about 17%” in assay [1] (LAC added at 0 h) and “about 25%” in assay [1] (LAC added at 16 h). The “percentage of the population in the S and G2/M phase” value in assay [1] (LAC added at 40 h or not, at 64 h) was “no difference”. Moreover, the “decrease (degradation) of p27Kip1” value in assay [2] (assayed at 16 h) is given as “significantly blocked the decrease”. Besides, in assay [2] (assayed at 40 h), the “blockage of p27Kip1 decrease” value is recorded as “less obvious”. For the same compound, the “expression of mRNA for NO synthase” value in assay [3] is “decreases the expression of mRNA for NO synthase”. Besides, in assay [4] (6 h, staurosporine 0.3 μM), the “accumulation of Bik in Jurkat cells” value is listed as “accumulates”. Also, in assay [4] (4 h, 5 h and 7 h), the “amount of Bik” value was “demonstable increase”.

The record behind these values is patent US20020049157A1, “Use of proteasome inhibitors for treating cancer, inflammation, autoimmune disease, graft rejection and septic shock” (priority 1998, published 2002).
